Assay results as given in US20250163104A1, “MACROCYCLIC IMMUNOMODULATORS” (priority 2021, published 2025).
Where a SMILES comes first, the peptide text is derived from it. Bridges are numbered along the chain shown (N, C = ends). [ ]: non-standard residue; d: D form. The star is where a group is joined. Bip(3'-COOH) = N[C@@H](Cc1ccc(-c2cccc(C(=O)O)c2)cc1)C(=O)O; Bip(4'-COOH) = N[C@@H](Cc1ccc(-c2ccc(C(=O)O)cc2)cc1)C(=O)O; Phe(3-CF3) = N[C@@H](Cc1cccc(C(F)(F)F)c1)C(=O)O; Phe(4-COOH) = N[C@@H](Cc1ccc(C(=O)O)cc1)C(=O)O; Asp(3,3-Me2) = CC(C)(C(=O)O)[C@H](N)C(=O)O; Bip = N[C@@H](Cc1ccc(-c2ccccc2)cc1)C(=O)O; Phe(3-CN) = N#Cc1cccc(C[C@H](N)C(=O)O)c1; Phe(3-OMe) = COc1cccc(C[C@H](N)C(=O)O)c1; Phe(3-Me) = Cc1cccc(C[C@H](N)C(=O)O)c1; Val(3-OH) = CC(C)(O)[C@H](N)C(=O)O; 4Pal = N[C@@H](Cc1ccncc1)C(=O)O; Cha = N[C@@H](CC1CCCCC1)C(=O)O; Cit = NC(=O)NCCC[C@H](N)C(=O)O; Carboxymethyl = O=C(O)C*; Orn = NCCC[C@H](N)C(=O)O; Pra = C#CC[C@H](N)C(=O)O; Dab = NCC[C@H](N)C(=O)O; Dap = NC[C@H](N)C(=O)O; Ac3c = NC1(C(=O)O)CC1

Each compound was assayed against T1, human PD-1 / PD-L1-Ig binding on Jurkat cell line over-expressing human PD-1 (Jurkat-PD-1) (Homo sapiens, UniProt Q15116) (assay: Jurkat-PD-1 Cell Binding High-Content Screening Assay (CBA)). Settings: Jurkat-PD-1 cells, PE-labeled PD-L1-Ig 20 nM final; read-out: Jurkat HPD1_PDL1 IC50.
T1 construct: expressed in transfected cells; host or cells: Jurkat
T1 sequence (Q15116 25-288): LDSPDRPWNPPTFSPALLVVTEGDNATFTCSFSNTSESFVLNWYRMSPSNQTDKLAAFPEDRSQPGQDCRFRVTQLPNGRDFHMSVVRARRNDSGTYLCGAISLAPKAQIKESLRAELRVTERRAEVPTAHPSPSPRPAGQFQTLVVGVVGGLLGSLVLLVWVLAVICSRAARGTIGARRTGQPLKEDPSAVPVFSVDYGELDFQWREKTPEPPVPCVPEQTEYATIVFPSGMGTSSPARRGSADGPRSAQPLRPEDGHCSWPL
Assay type: cell-based
Outline: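 Compounds were preincubated with Jurkat-hPD-1 cells in DMEM plus 10% fetal calf serum for 2 h at 37° C. Phycoerythrin-labeled PD-L1-Ig (20 nM final) was then added for 1 hour. Cells were fixed in 4% paraformaldehyde with Hoechst 33342, and bound fluorescence was quantified by high-content imaging.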
`Cc1cccc(C[C@@H]2NC(=O)[C@H](CC(=O)O)NC(=O)[C@H](Cc3ccc(OCC(=O)O)cc3)NC(=O)[C@H](Cc3ccncc3)NC(=O)CSC[C@@H](C(=O)N[C@@H](CCN)C(N)=O)NC(=O)[C@H](CO)NC(=O)[C@H](C(C)(C)O)NC(=O)[C@H](CC3CCCCC3)NC(=O)[C@H](CCN)NC(=O)[C@@H](CC(C)C)NC(=O)C3(CC3)NC(=O)[C@H](Cc3ccc(OCC(=O)O)cc3)NC(=O)[C@H](Cc3ccc(-c4ccccc4)cc3)NC(=O)[C@H](Cc3ccc(OCC(=O)O)cc3)NC2=O)c1` [Compound 2082] ({CH2CO}-[4Pal]Y(Carboxymethyl)D[Phe(3-Me)]Y(Carboxymethyl)[Bip]Y(Carboxymethyl)[Ac3c][dL][Dab][Cha][Val(3-OH)]SC[Dab]-NH2; thioether N-14) showed an IC50 of 111 nM.
`Cc1cccc(C[C@@H]2NC(=O)[C@H](CC(=O)O)NC(=O)[C@H](Cc3ccc(OCC(=O)O)cc3)NC(=O)[C@H](Cc3ccncc3)NC(=O)CSC[C@@H](C(=O)N[C@@H](CCN)C(N)=O)NC(=O)[C@H](CO)NC(=O)[C@H](C(C)(C)O)NC(=O)[C@H](CC3CCCCC3)NC(=O)[C@H](CCN)NC(=O)[C@@H](CC(C)C)NC(=O)C(C3CCNCC3)NC(=O)[C@H](Cc3ccc(OCC(=O)O)cc3)NC(=O)[C@H](Cc3ccc(-c4ccccc4)cc3)NC(=O)[C@H](Cc3ccc(OCC(=O)O)cc3)NC2=O)c1` (some centres unmarked) [Compound 2083] was tested, and the IC50 was 912 nM.
Compound `Cc1cccc(C[C@@H]2NC(=O)[C@H](CC(=O)O)NC(=O)[C@H](Cc3ccc(OCC(=O)O)cc3)NC(=O)[C@H](Cc3ccncc3)NC(=O)CSC[C@@H](C(=O)N[C@@H](CCN)C(N)=O)NC(=O)[C@H](C(C)(C)C(=O)O)NC(=O)[C@H](C(C)C)NC(=O)[C@H](CC3CCCCC3)NC(=O)[C@H](CCN)NC(=O)[C@@H](CC(C)C)NC(=O)[C@H](CCCN)NC(=O)[C@H](Cc3ccc(OCC(=O)O)cc3)NC(=O)[C@H](Cc3ccc(-c4ccccc4)cc3)NC(=O)[C@H](Cc3ccc(OCC(=O)O)cc3)NC2=O)c1` [Compound 2085] ({CH2CO}-[4Pal]Y(Carboxymethyl)D[Phe(3-Me)]Y(Carboxymethyl)[Bip]Y(Carboxymethyl)[Orn][dL][Dab][Cha]V[Asp(3,3-Me2)]C[Dab]-NH2; thioether N-14) has an IC50 of 70 nM.
Work on `C#CC[C@H](NC(=O)[C@H](CCN)NC(=O)[C@@H]1CSCC(=O)N[C@@H](CCN)C(=O)N[C@@H](Cc2ccc(C(=O)O)cc2)C(=O)N[C@@H](CC(=O)O)C(=O)N[C@@H](Cc2cccc(C)c2)C(=O)N[C@@H](Cc2ccc(C(=O)O)cc2)C(=O)N[C@@H](Cc2ccc(-c3ccccc3)cc2)C(=O)N[C@@H](Cc2ccc(C(=O)O)cc2)C(=O)N[C@@H](CCCN)C(=O)N[C@H](CC(C)C)C(=O)N[C@@H](CCN)C(=O)N[C@@H](CC2CCCCC2)C(=O)N[C@@H](C(C)(C)O)C(=O)N[C@@H](CO)C(=O)N1)C(N)=O` [Compound 2088] ({CH2CO}-[Dab][Phe(4-COOH)]D[Phe(3-Me)][Phe(4-COOH)][Bip][Phe(4-COOH)][Orn][dL][Dab][Cha][Val(3-OH)]SC[Dab][Pra]-NH2; thioether N-14) yielded an IC50 of 4.4 nM.
With `CC(C)C[C@H]1NC(=O)[C@H](CCCN)NC(=O)[C@H](CCCNC(N)=O)NC(=O)[C@H](Cc2ccc(-c3ccccc3)cc2)NC(=O)[C@H](C(C)C)NC(=O)[C@H](Cc2c[nH]c3ccccc23)NC(=O)[C@H](CC(=O)O)NC(=O)[C@H](Cc2ccc(-c3ccc(C(=O)O)cc3)cc2)NC(=O)[C@H](CN)NC(=O)CSC[C@@H](C(=O)N[C@@H](C)C(N)=O)NC(=O)[C@H]([C@@H](C)O)NC(=O)[C@H](C(C)C)NC(=O)[C@H](CC2CCCCC2)NC(=O)[C@H](CCN)NC1=O` [Compound 2089] ({CH2CO}-[Dap][Bip(4'-COOH)]DWV[Bip][Cit][Orn][dL][Dab][Cha]VTCA-NH2; thioether N-14) the IC50 was 8.3 nM.
`CC(C)C[C@H]1NC(=O)[C@H](CCCN)NC(=O)[C@H](CCCNC(N)=O)NC(=O)[C@H](Cc2ccc(-c3ccccc3)cc2)NC(=O)[C@H](C(C)C)NC(=O)[C@H](Cc2c[nH]c3ccccc23)NC(=O)[C@H](CC(=O)O)NC(=O)[C@H](Cc2ccc(-c3cccc(C(=O)O)c3)cc2)NC(=O)[C@H](CN)NC(=O)CSC[C@@H](C(=O)N[C@@H](C)C(N)=O)NC(=O)[C@H]([C@@H](C)O)NC(=O)[C@H](C(C)C)NC(=O)[C@H](CC2CCCCC2)NC(=O)[C@H](CCN)NC1=O` [Compound 2090] ({CH2CO}-[Dap][Bip(3'-COOH)]DWV[Bip][Cit][Orn][dL][Dab][Cha]VTCA-NH2; thioether N-14) showed an IC50 of 7.8 nM.
`COc1cccc(C[C@@H]2NC(=O)[C@H](CN)NC(=O)CSC[C@@H](C(=O)N[C@@H](C)C(N)=O)NC(=O)[C@H]([C@@H](C)O)NC(=O)[C@H](C(C)C)NC(=O)[C@H](CC3CCCCC3)NC(=O)[C@H](CCN)NC(=O)[C@@H](CC(C)C)NC(=O)[C@H](CCCN)NC(=O)[C@H](CCCNC(N)=O)NC(=O)[C@H](Cc3ccc(-c4ccccc4)cc3)NC(=O)[C@H](C(C)C)NC(=O)[C@H](Cc3c[nH]c4ccccc34)NC(=O)[C@H](CC(=O)O)NC2=O)c1` [Compound 2091] ({CH2CO}-[Dap][Phe(3-OMe)]DWV[Bip][Cit][Orn][dL][Dab][Cha]VTCA-NH2; thioether N-14) showed an IC50 of 24.3 nM.
`CC(C)C[C@H]1NC(=O)[C@H](CCCN)NC(=O)[C@H](CCCNC(N)=O)NC(=O)[C@H](Cc2ccc(-c3ccccc3)cc2)NC(=O)[C@H](C(C)C)NC(=O)[C@H](Cc2c[nH]c3ccccc23)NC(=O)[C@H](CC(=O)O)NC(=O)[C@H](Cc2cccc(C(F)(F)F)c2)NC(=O)[C@H](CN)NC(=O)CSC[C@@H](C(=O)N[C@@H](C)C(N)=O)NC(=O)[C@H]([C@@H](C)O)NC(=O)[C@H](C(C)C)NC(=O)[C@H](CC2CCCCC2)NC(=O)[C@H](CCN)NC1=O` [Compound 2092] ({CH2CO}-[Dap][Phe(3-CF3)]DWV[Bip][Cit][Orn][dL][Dab][Cha]VTCA-NH2; thioether N-14) was tested, and the IC50 was 43.1 nM.
With `CC(C)C[C@H]1NC(=O)[C@H](CCCN)NC(=O)[C@H](CCCNC(N)=O)NC(=O)[C@H](Cc2ccc(-c3ccccc3)cc2)NC(=O)[C@H](C(C)C)NC(=O)[C@H](Cc2c[nH]c3ccccc23)NC(=O)[C@H](CC(=O)O)NC(=O)[C@H](Cc2cccc(C#N)c2)NC(=O)[C@H](CN)NC(=O)CSC[C@@H](C(=O)N[C@@H](C)C(N)=O)NC(=O)[C@H]([C@@H](C)O)NC(=O)[C@H](C(C)C)NC(=O)[C@H](CC2CCCCC2)NC(=O)[C@H](CCN)NC1=O` [Compound 2093] ({CH2CO}-[Dap][Phe(3-CN)]DWV[Bip][Cit][Orn][dL][Dab][Cha]VTCA-NH2; thioether N-14) the IC50 was 12 nM.
For `CC(C)C[C@H]1NC(=O)[C@H](CCCN)NC(=O)[C@H](CCCNC(N)=O)NC(=O)[C@H](Cc2ccc(-c3ccccc3)cc2)NC(=O)[C@H](C(C)C)NC(=O)[C@H](Cc2c[nH]c3ccccc23)NC(=O)[C@H](CC(=O)O)NC(=O)[C@H](Cc2cccnc2)NC(=O)[C@H](CN)NC(=O)CSC[C@@H](C(=O)N[C@@H](C)C(N)=O)NC(=O)[C@H]([C@@H](C)O)NC(=O)[C@H](C(C)C)NC(=O)[C@H](CC2CCCCC2)NC(=O)[C@H](CCN)NC1=O` [Compound 2094], the IC50 was 8.7 nM.
`CC(C)C[C@H]1NC(=O)[C@H](CCCN)NC(=O)[C@H](CCCNC(N)=O)NC(=O)[C@H](Cc2ccc(-c3ccccc3)cc2)NC(=O)[C@H](C(C)C)NC(=O)[C@H](Cc2c[nH]c3ccccc23)NC(=O)[C@H](CC(=O)O)NC(=O)[C@H](Cc2ccncc2)NC(=O)[C@H](CN)NC(=O)CSC[C@@H](C(=O)N[C@@H](C)C(N)=O)NC(=O)[C@H]([C@@H](C)O)NC(=O)[C@H](C(C)C)NC(=O)[C@H](CC2CCCCC2)NC(=O)[C@H](CCN)NC1=O` [Compound 2096] gave an IC50 of 4.5 nM.
